In patent US11814445B2, “Cyclic polypeptides for PCSK9 inhibition” (Ra Pharmaceuticals, Inc., priority 2018, dated 2023):
Numbered stars: 1 amine (or outer) side, 2 acyl side, 3 side chain; on linkers, the order of the positions; unused ones are H or OH. Bridge positions count the residues as written; N and C are the ends. Square brackets hold non-standard residues; d marks the D form. Peptide text beside a SMILES is read from it. ξ: configuration not given here. Trp(5-F) = N[C@@H](Cc1c[nH]c2ccc(F)cc12)C(=O)O; X8 = O=C(CCCCCSCc1cccc(CSCCN[*:1])c1)[*:2]; Phe(3-Cl) = N[C@@H](Cc1cccc(Cl)c1)C(=O)O; Phe(4-Cl) = N[C@@H](Cc1ccc(Cl)cc1)C(=O)O; αMeW = C[C@](N)(Cc1c[nH]c2ccccc12)C(=O)O; X1 = O=C(CCSCc1cccc(CSCCN[*:1])c1)[*:2]; 1Nal = N[C@@H](Cc1cccc2ccccc12)C(=O)O; Tiq1c(1S) = O=C(O)[C@H]1NCCc2ccccc21; mXylylene = c1cc(C[*:1])cc(C[*:2])c1; NMeY = CN[C@@H](Cc1ccc(O)cc1)C(=O)O; NMeF = CN[C@@H](Cc1ccccc1)C(=O)O; 2Pal = N[C@@H](Cc1ccccn1)C(=O)O; 3Pal = N[C@@H](Cc1cccnc1)C(=O)O; Tic = O=C(O)[C@@H]1Cc2ccccc2CN1; Cha = N[C@@H](CC1CCCCC1)C(=O)O; αMeP = C[C@@]1(C(=O)O)CCCN1; ΔPro = O=C(O)[C@@H]1C=CCN1; Pip = O=C(O)[C@@H]1CCCCN1; Thp = NC1(C(=O)O)CCOCC1; Aib = CC(C)(N)C(=O)O; ξP = O=C(O)C1CCCN1; Mpa = O=C(O)CCS

Molecular target: human PCSK9 / human LDLR EGFa domain (Homo sapiens, UniProt Q8NBP7)
Sequence (Q8NBP7 153-692): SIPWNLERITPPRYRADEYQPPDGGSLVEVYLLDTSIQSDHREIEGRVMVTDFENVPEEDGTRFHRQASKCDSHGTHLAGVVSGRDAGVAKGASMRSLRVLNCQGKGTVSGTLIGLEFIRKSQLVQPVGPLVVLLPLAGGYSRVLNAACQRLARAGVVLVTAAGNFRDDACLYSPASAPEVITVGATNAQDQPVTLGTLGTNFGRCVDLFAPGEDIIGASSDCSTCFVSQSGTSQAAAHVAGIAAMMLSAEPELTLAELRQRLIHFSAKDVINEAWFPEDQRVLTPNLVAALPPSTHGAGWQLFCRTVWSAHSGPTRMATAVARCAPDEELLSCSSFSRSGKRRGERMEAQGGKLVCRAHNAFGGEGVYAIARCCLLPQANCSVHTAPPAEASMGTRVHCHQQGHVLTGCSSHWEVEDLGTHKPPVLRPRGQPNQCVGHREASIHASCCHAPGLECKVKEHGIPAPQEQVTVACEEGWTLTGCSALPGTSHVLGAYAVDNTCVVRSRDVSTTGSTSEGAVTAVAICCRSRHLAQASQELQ
Experiment: TR-FRET assay of inhibition of the PCSK9-LDLR protein-protein interaction
Format: binding
Details: 20 nM human PCSK9, 20 nM human LDLR EGFa domain, 2 hours room temperature
Protocol: A time-resolved fluorescence resonance energy (TR-FRET) assay was used to measure inhibition of the PCSK9-LDLR protein-protein interaction. Briefly, 20 nM avitag-biotinylated human PCSK9 was incubated with 20 nM his-tagged human LDLR EGFa domain in the presence of 5 nM LANCE Ulight Streptavidin (Perkin Elmer) and 5 nM europium-Anti-6×His (Perkin Elmer) for 2 hours covered at room temperature in buffer containing 50 mM HEPES, 150 mM NaCl, 5 mM CaCl2), 0.01% BSA and 0.01% Surfactant P20. Compounds were tested in dose-response and concentrations giving half-maximal inhibition calculated using a 4-parameter fit equation.

IC50	SMILES
100 to 1000 nM	C[C@@H]1NC(=O)CNC(=O)[C@H](CCCCN)NC(=O)CCSCc2cccc(c2)CSC[C@@H](C(N)=O)NC(=O)[C@@H]2CCCN2C(=O)[C@H](Cc2ccc(O)cc2)NC(=O)[C@H](Cc2cnc[nH]2)NC(=O)[C@H](CC(=O)O)NC(=O)[C@H](Cc2c[nH]c3ccc(F)cc23)NC1=O [Compound 112] ([Mpa]KGA[Trp(5-F)]DHYPC-NH2; linker 1-10 via mXylylene)
21000 to 50000 nM	C[C@@H]1NC(=O)CCSCc2cccc(c2)CSCCNC(=O)[C@@H]2CCCN2C(=O)[C@H](Cc2ccccc2)N(C)C(=O)[C@H](C)NC(=O)[C@@H]2CCCCN2C(=O)[C@H](Cc2c[nH]c3ccc(F)cc23)NC(=O)[C@H](Cc2c[nH]c3ccc(F)cc23)NC(=O)[C@@H](C)NC1=O [Compound 088] (cyclo(A[NMeF]P[X1]A[dA][Trp(5-F)][Trp(5-F)][Pip]))
100 to 1000 nM	C[C@@H]1NC(=O)[C@@H]2CCCN2C(=O)[C@H](Cc2c[nH]c3ccc(F)cc23)NC(=O)[C@H](Cc2c[nH]c3ccc(F)cc23)NC(=O)[C@@H](C)NC(=O)C(C)(C)NC(=O)CCSCc2cccc(c2)CSCCNC(=O)[C@@H]2CCCN2C(=O)[C@H](Cc2ccc(O)cc2)NC1=O [Compound 094] (cyclo(AYP[X1][Aib][dA][Trp(5-F)][Trp(5-F)]P))
21000 to 50000 nM	C[C@@H]1NC(=O)CCSCc2cccc(c2)CSCCNC(=O)[C@@H]2CCCN2C(=O)[C@H](Cc2ccc(O)cc2)NC(=O)[C@H](C)NC(=O)[C@@H]2c3ccccc3CCN2C(=O)[C@H](Cc2c[nH]c3ccc(F)cc23)NC(=O)[C@H](Cc2c[nH]c3ccccc23)NC(=O)[C@@H](C)NC1=O [Compound 092] (cyclo(AYP[X1]A[dA]W[Trp(5-F)][Tiq1c(1S)]))
1000 to 12100 nM	C[C@@H]1NC(=O)[C@@H]2CCCN2C(=O)[C@H](Cc2c[nH]c3ccc(F)cc23)NC(=O)[C@H](Cc2cccc3ccccc23)NC(=O)[C@@H](C)NC(=O)[C@@H]2CCCN2C(=O)CCSCc2cccc(c2)CSCCNC(=O)[C@@H]2CCCN2C(=O)[C@H](Cc2cccc3ccccc23)NC1=O [Compound 055] (cyclo([1Nal]P[X1]P[dA][1Nal][Trp(5-F)]PA))
21000 to 50000 nM	C[C@@H]1NC(=O)CCSCc2cccc(c2)CSCCNC(=O)[C@@H]2CCCN2C(=O)[C@H](Cc2ccc(O)cc2)NC(=O)[C@H](C)NC(=O)[C@@H]2CCCN2C(=O)[C@H](Cc2c[nH]c3ccc(F)cc23)NC(=O)[C@H](Cc2c[nH]c3ccc(F)cc23)NC(=O)[C@@H](C)NC1=O [Compound 058] (cyclo(AYP[X1]A[dA][Trp(5-F)][Trp(5-F)]P))
100 to 1000 nM	C[C@@H]1NC(=O)[C@@H]2CCCN2C(=O)[C@H](Cc2c[nH]c3ccc(F)cc23)NC(=O)[C@H](Cc2c[nH]c3ccc(F)cc23)NC(=O)CNC(=O)CCCCCSCc2cccc(c2)CSCCNC(=O)C2CCCN2C(=O)[C@H](Cc2ccc(O)cc2)NC1=O (some centres unmarked) [Compound 098] (cyclo(AY[ξP][X8]G[Trp(5-F)][Trp(5-F)]P))
100 to 1000 nM	CN1C(=O)[C@H](Cc2cnc[nH]2)NC(=O)[C@@H]2CCCN2C(=O)[C@H](Cc2c[nH]c3ccc(F)cc23)NC(=O)[C@H](CC2CCCCC2)NC(=O)CNC(=O)[C@H](CCCCN)NC(=O)CCSCc2cccc(c2)CSCCNC(=O)[C@]2(C)CCCN2C(=O)[C@@H]1Cc1ccc(O)cc1 [Compound 106] (cyclo([Cha][Trp(5-F)]PH[NMeY][αMeP][X1]KG))
100 to 1000 nM	C[C@@H]1NC(=O)CCSCc2cccc(c2)CSCCNC(=O)[C@@H]2CCCN2C(=O)[C@H](Cc2ccc(O)cc2)NC(=O)[C@H](C)NC(=O)[C@@H]2Cc3ccccc3CN2C(=O)[C@H](Cc2c[nH]c3ccc(F)cc23)NC(=O)[C@H](Cc2c[nH]c3ccc(F)cc23)NC(=O)[C@@H](C)NC1=O [Compound 091] (cyclo(AYP[X1]A[dA][Trp(5-F)][Trp(5-F)][Tic]))
1000 to 12100 nM	C[C@@H]1NC(=O)CCSCc2cccc(c2)CSCCNC(=O)[C@@H]2CCCN2C(=O)[C@H](Cc2ccccc2)N(C)C(=O)[C@H](C)NC(=O)[C@@H]2CCCN2C(=O)[C@H](Cc2c[nH]c3ccc(F)cc23)NC(=O)[C@H](Cc2cccc3ccccc23)NC(=O)[C@@H](C)NC1=O [Compound 067] (cyclo([1Nal][Trp(5-F)]PA[NMeF]P[X1]A[dA]))
100 to 1000 nM	C[C@@H](O)[C@@H]1NC(=O)CNC(=O)[C@H](CCCCN)NC(=O)CCSCc2cccc(c2)CSCCNC(=O)[C@]2(C)CCCN2C(=O)[C@H](Cc2ccc(O)cc2)NC(=O)[C@H](Cc2cnc[nH]2)NC(=O)[C@@H]2CCCN2C(=O)[C@H](Cc2c[nH]c3ccc(F)cc23)NC1=O [Compound 105] (cyclo(GT[Trp(5-F)]PHY[αMeP][X1]K))

Second part, the molecule before the results:

SMILES	IC50
C[C@@H]1NC(=O)[C@@H]2CCCN2C(=O)[C@H](Cc2c[nH]c3ccc(F)cc23)NC(=O)[C@H](Cc2c[nH]c3ccc(F)cc23)NC(=O)[C@@H](C)NC(=O)[C@@H]2CCCN2C(=O)CCSCc2cccc(c2)CSCCNC(=O)[C@@H]2CCCN2C(=O)[C@H](Cc2ccccc2)N(C)C1=O [Compound 051] (cyclo(A[NMeF]P[X1]P[dA][Trp(5-F)][Trp(5-F)]P))	1 to 100 nM
C[C@@H]1NC(=O)[C@@H]2CCCN2C(=O)[C@H](Cc2c[nH]c3ccc(F)cc23)NC(=O)[C@H](Cc2c[nH]c3ccc(F)cc23)NC(=O)[C@@H](C)NC(=O)[C@H](CCCCN)NC(=O)CCSCc2cccc(c2)CSCCNC(=O)[C@]2(C)CCCN2C(=O)[C@H](Cc2ccc(O)cc2)NC1=O [Compound 003] (cyclo(AY[αMeP][X1]K[dA][Trp(5-F)][Trp(5-F)]P))	1000 to 12100 nM
C[C@@H]1NC(=O)[C@@H]2CCCN2C(=O)[C@H](Cc2c[nH]c3ccc(F)cc23)NC(=O)[C@H](Cc2c[nH]c3ccc(F)cc23)NC(=O)[C@@H](C)NC(=O)[C@@H]2CCCN2C(=O)CCSCc2cccc(c2)CSCCNC(=O)[C@@H]2CCCN2C(=O)[C@H](Cc2cccc3ccccc23)NC1=O [Compound 054] (cyclo([1Nal]P[X1]P[dA][Trp(5-F)][Trp(5-F)]PA))	100 to 1000 nM
C[C@@H]1NC(=O)[C@@H]2CCCN2C(=O)[C@H](Cc2cccc(Cl)c2)NC(=O)[C@H](Cc2c[nH]c3ccc(F)cc23)NC(=O)CNC(=O)[C@H](CCCCN)NC(=O)CCSCc2cccc(c2)CSC[C@@H](C(N)=O)NC(=O)[C@@H]2CCCN2C(=O)[C@H](Cc2ccc(O)cc2)NC1=O [Compound 005] ([Mpa]KG[Trp(5-F)][Phe(3-Cl)]PAYPC-NH2; linker 1-10 via mXylylene)	100 to 1000 nM
C[C@@H]1NC(=O)[C@@H]2C=CCN2C(=O)[C@H](Cc2c[nH]c3ccc(F)cc23)NC(=O)[C@H](Cc2c[nH]c3ccc(F)cc23)NC(=O)[C@@H](C)NC(=O)[C@H](CCCCN)NC(=O)CCSCc2cccc(c2)CSC[C@@H](C(N)=O)NC(=O)[C@@H]2CCCN2C(=O)[C@H](Cc2ccc(O)cc2)NC1=O [Compound 038] ([Mpa]K[dA][Trp(5-F)][Trp(5-F)][ΔPro]AYPC-NH2; linker 1-10 via mXylylene)	100 to 1000 nM
C[C@@H]1NC(=O)[C@@H]2CCCN2C(=O)[C@H](Cc2ccccn2)NC(=O)[C@H](Cc2c[nH]c3ccc(F)cc23)NC(=O)CNC(=O)[C@H](CCCCN)NC(=O)CCSCc2cccc(c2)CSC[C@@H](C(N)=O)NC(=O)[C@@H]2CCCN2C(=O)[C@H](Cc2ccc(O)cc2)NC1=O [Compound 019] ([Mpa]KG[Trp(5-F)][2Pal]PAYPC-NH2; linker 1-10 via mXylylene)	21000 to 50000 nM
C[C@@H]1NC(=O)[C@@H]2CCCN2C(=O)[C@](C)(Cc2c[nH]c3ccccc23)NC(=O)[C@H](Cc2c[nH]c3ccc(F)cc23)NC(=O)CNC(=O)[C@H](CCCCN)NC(=O)CCSCc2cccc(c2)CSC[C@@H](C(N)=O)NC(=O)[C@@H]2CCCN2C(=O)[C@H](Cc2ccc(O)cc2)NC1=O [Compound 023] ([Mpa]KG[Trp(5-F)][αMeW]PAYPC-NH2; linker 1-10 via mXylylene)	1000 to 12100 nM
C[C@H]1NC(=O)[C@H]2CCCN2C(=O)[C@H](Cc2c[nH]c3ccc(F)cc23)NC(=O)[C@H](Cc2c[nH]c3ccc(F)cc23)NC(=O)CNC(=O)[C@H](CCCCN)NC(=O)CCSCc2cccc(c2)CSCCNC(=O)C2CCCN2C(=O)[C@H](Cc2ccc(O)cc2)NC1=O (some centres unmarked) [Compound 040] (cyclo(G[Trp(5-F)][Trp(5-F)][dP][dA]Y[ξP][X1]K))	1 to 100 nM
C[C@@H]1NC(=O)[C@@H]2CCCCN2C(=O)[C@H](Cc2c[nH]c3ccc(F)cc23)NC(=O)[C@H](Cc2c[nH]c3ccc(F)cc23)NC(=O)[C@@H](C)NC(=O)[C@H](CCCCN)NC(=O)CCSCc2cccc(c2)CSC[C@@H](C(N)=O)NC(=O)[C@@H]2CCCN2C(=O)[C@H](Cc2ccc(O)cc2)NC1=O [Compound 035] ([Mpa]K[dA][Trp(5-F)][Trp(5-F)][Pip]AYPC-NH2; linker 1-10 via mXylylene)	100 to 1000 nM
C[C@@H]1NC(=O)[C@@H]2CCCN2C(=O)[C@H](Cc2cccnc2)NC(=O)[C@H](Cc2c[nH]c3ccc(F)cc23)NC(=O)CNC(=O)[C@H](CCCCN)NC(=O)CCSCc2cccc(c2)CSC[C@@H](C(N)=O)NC(=O)[C@@H]2CCCN2C(=O)[C@H](Cc2ccc(O)cc2)NC1=O [Compound 020] ([Mpa]KG[Trp(5-F)][3Pal]PAYPC-NH2; linker 1-10 via mXylylene)	21000 to 50000 nM
C[C@@H]1NC(=O)[C@@H]2CCCN2C(=O)[C@H](Cc2c[nH]c3ccc(F)cc23)NC(=O)[C@H](Cc2c[nH]c3ccc(F)cc23)NC(=O)[C@@H](C)NC(=O)C2(CCOCC2)NC(=O)CCSCc2cccc(c2)CSCCNC(=O)[C@@H]2CCCN2C(=O)[C@H](Cc2ccc(O)cc2)NC1=O [Compound 031] (cyclo(AYP[X1][Thp][dA][Trp(5-F)][Trp(5-F)]P))	100 to 1000 nM
C[C@@H]1NC(=O)[C@@H]2CCCN2C(=O)[C@H](Cc2ccc(Cl)cc2)NC(=O)[C@H](Cc2c[nH]c3ccc(F)cc23)NC(=O)CNC(=O)[C@H](CCCCN)NC(=O)CCSCc2cccc(c2)CSC[C@@H](C(N)=O)NC(=O)[C@@H]2CCCN2C(=O)[C@H](Cc2ccc(O)cc2)NC1=O [Compound 004] ([Mpa]KG[Trp(5-F)][Phe(4-Cl)]PAYPC-NH2; linker 1-10 via mXylylene)	1000 to 12100 nM
